Measurements from patent US20260356856A1, “KRAS G12S AND G12C INHIBITORS” (MIRATI THERAPEUTICS, INC., priority 2023, published 2026).

Columns and labels:
[1] = molecular target: T1, KRas-mediated phosphorylation of ERK in A549 cells (Homo sapiens, UniProt P01116, G12S); assay: Inhibition of KRas-mediated phosphorylation of ERK (HTRF), A549 cells; assay type: cell-based; conditions: HTRF pERK, 3 h incubation
T1 construct: pERK HTRF read-out

KRas G12S = molecular target: T2, KRas G12S (Homo sapiens, UniProt P01116, G12S); assay: KRas binding assay, TR-FRET displacement of Cy5 labelled tracer; conditions: 60-minute incubation at room temperature, 1% DMSO, pH 7.5
T2 construct: Biotinylated KRas (corresponding to amino acids 1-169, produced at Accelegan Inc.); biotin (biotinylated); purchased Accelegan Inc
T2 sequence (P01116 1-169 isoform P01116-2 G12S): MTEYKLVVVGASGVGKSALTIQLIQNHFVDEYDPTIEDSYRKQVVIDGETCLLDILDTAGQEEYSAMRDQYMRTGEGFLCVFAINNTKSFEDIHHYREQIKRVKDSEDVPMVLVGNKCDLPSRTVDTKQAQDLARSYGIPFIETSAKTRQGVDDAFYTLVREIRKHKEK
How it was run: (§1)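 Tb-streptavidin captured biotinylated KRas (1-169) in HEPES 50 mM, DTT 1 mM, MgCl2 5 mM, Tween-20 0.005% (pH 7.5), alongside tracer and compound at 1% final DMSO. One hour at RT, then read; IC50 from 4-parameter POC fit.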

KRas G12C = molecular target: T3, KRas G12C (Homo sapiens, UniProt P01116, G12C); assay: as above; conditions: 60-minute incubation at room temperature, 1% DMSO, pH 7.5
T3 construct: Biotinylated KRas (corresponding to amino acids 1-169, produced at Accelegan Inc.); biotin (biotinylated); purchased Accelegan Inc
T3 sequence (P01116 1-169 isoform P01116-2 G12C): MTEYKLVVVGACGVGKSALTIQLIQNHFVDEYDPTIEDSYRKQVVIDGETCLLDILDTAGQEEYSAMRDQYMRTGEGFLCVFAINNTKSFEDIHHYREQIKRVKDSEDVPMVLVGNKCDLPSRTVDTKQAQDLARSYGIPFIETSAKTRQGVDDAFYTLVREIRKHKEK
How it was run: as §1

KRas WT = molecular target: T4, KRas WT (Homo sapiens, UniProt P01116); assay: as above; conditions: 60-minute incubation at room temperature, 1% DMSO, pH 7.5
T4 construct: Biotinylated KRas (corresponding to amino acids 1-169, produced at Accelegan Inc.); biotin (biotinylated); purchased Accelegan Inc
T4 sequence (P01116 1-169 isoform P01116-2): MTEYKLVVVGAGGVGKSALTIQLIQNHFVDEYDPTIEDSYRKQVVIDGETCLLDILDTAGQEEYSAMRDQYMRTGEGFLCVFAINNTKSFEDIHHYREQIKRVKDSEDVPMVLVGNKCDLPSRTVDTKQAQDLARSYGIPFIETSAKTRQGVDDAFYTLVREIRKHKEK
How it was run: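 Displacement measured on KRas residues 1-169 (biotinylated, terbium-streptavidin labelled); 1 h, RT; 1% DMSO final; HEPES pH 7.5 / MgCl2 / Tween-20 / DTT. IC50: 4-parameter fit.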

[2] = molecular target: T5, KRas-mediated phosphorylation of ERK in H358 cells (Homo sapiens, UniProt P01116, G12C); assay: Inhibition of KRas-mediated phosphorylation of ERK (HTRF), H358 cells; assay type: cell-based; conditions: HTRF pERK, 3 h incubation
T5 construct: pERK HTRF read-out
T5 sequence (P01116 1-188 isoform P01116-2 G12C): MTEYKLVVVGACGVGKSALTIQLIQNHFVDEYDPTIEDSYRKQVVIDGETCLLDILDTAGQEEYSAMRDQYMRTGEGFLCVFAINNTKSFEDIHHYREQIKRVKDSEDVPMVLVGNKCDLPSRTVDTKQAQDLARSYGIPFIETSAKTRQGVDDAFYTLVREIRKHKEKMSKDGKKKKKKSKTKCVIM

[3] = molecular target: T6, KRas-mediated phosphorylation of ERK in MKN1 cells (Homo sapiens, UniProt P01116); assay: Inhibition of KRas-mediated phosphorylation of ERK (HTRF), MKN1 cells; assay type: cell-based; conditions: MKN1 cells (KRas WT); HTRF pERK; 3 h incubation
T6 construct: pERK HTRF read-out
T6 sequence (P01116 1-188 isoform P01116-2): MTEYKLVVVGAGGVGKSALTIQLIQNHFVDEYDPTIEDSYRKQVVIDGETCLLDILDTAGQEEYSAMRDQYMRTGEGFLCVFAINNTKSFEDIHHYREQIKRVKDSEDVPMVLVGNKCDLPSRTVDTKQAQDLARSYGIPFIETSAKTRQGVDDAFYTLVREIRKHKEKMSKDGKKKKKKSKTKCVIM
Description: Inhibition of KRas Phosphorylation of ERK (HTRF) by Exemplary Compounds of Formula (Ia) or (Ib)
Cisbio HTRF Advanced pERK Assay Catalog #64AERPEH • Cells: MKN1, PSN1 • Procedure: • 1. Day 1: Seed 6,000 cells/well −25 μl/well in 384-well white solid bottom plate; RPM1_10% FBS. Incubate overnight at 37 °C/5% CO2. • 2.

T1 sequence (P01116 1-188 isoform P01116-2 G12S): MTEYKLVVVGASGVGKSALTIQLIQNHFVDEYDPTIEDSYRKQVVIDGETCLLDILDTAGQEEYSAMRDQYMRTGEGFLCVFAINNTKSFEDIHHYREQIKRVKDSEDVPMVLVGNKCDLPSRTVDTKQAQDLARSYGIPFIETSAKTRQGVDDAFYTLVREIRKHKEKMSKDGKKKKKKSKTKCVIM

Row | Compound | IC50 [1] [nM] | IC50 (KRas G12S) [nM] | IC50 (KRas G12C) [nM] | IC50 (KRas WT) [nM] | IC50 [2] [nM] | IC50 [3] [nM]
1 | CN(C(=O)C1CCN(c2nc(OC[C@@]34CCCN3C[C@H](F)C4)nc3c(F)c(-c4ccc(F)c5sc(N)c(C#N)c45)c(Cl)cc23)CC1)c1cccnc1 [Example 289, 1-(7-(2-amino-3-cyano-7-fluorobenzo[b]thiophen-4-yl)-6-chloro-8-fluoro-2-(((2R,7aS)-2-fluorotetrahydro-1H-pyrrolizin-7a(5H)-yl)methoxy)quinazolin-4-yl)-N-methyl-N-(pyridin-3-yl)piperidine-4-carboxamide] | 271 | 18 | 10 | 5 | 81 | 33
2 | CN(C(=O)C1CCN(c2nc(OC[C@@]34CCCN3C[C@H](F)C4)nc3c(F)c(-c4ccc(F)c5sc(N)c(C#N)c45)c(Cl)cc23)CC1)c1ccncn1 [Example 290, 1-(7-(2-amino-3-cyano-7-fluorobenzo[b]thiophen-4-yl)-6-chloro-8-fluoro-2-(((2R,7aS)-2-fluorotetrahydro-1H-pyrrolizin-7a(5H)-yl)methoxy)quinazolin-4-yl)-N-methyl-N-(pyrimidin-4-yl)piperidine-4-carboxamide] | 142 | 13 | 9 | 10 | 29 | 18
3 | CCN(C(C)=O)C(=O)CCCN(C)c1nc(OC[C@@]23CCCN2C[C@H](F)C3)nc2c(F)c(-c3ccc(F)c4sc(N)c(C#N)c34)c(Cl)cc12 [Example 291, N-acetyl-4-((7-(2-amino-3-cyano-7-fluorobenzo[b]thiophen-4-yl)-6-chloro-8-fluoro-2-(((2R,7aS)-2-fluorotetrahydro-1H-pyrrolizin-7a(5H)-yl)methoxy)quinazolin-4-yl)(methyl)amino)-N-ethylbutanamide] | 65 | 7 | 6 | 12 | 81 | 134
4 | CN(C(=O)CCCN(C)c1nc(OC[C@@]23CCCN2C[C@H](F)C3)nc2c(F)c(-c3ccc(F)c4sc(N)c(C#N)c34)c(Cl)cc12)C(=O)c1ccn(C)n1 [Example 292, N-(4-((7-(2-amino-3-cyano-7-fluorobenzo[b]thiophen-4-yl)-6-chloro-8-fluoro-2-(((2R,7aS)-2-fluorotetrahydro-1H-pyrrolizin-7a(5H)-yl)methoxy)quinazolin-4-yl)(methyl)amino)butanoyl)-N, 1-dimethyl-1H-pyrazole-3-carboxamide] | 27 | 5 | 3 | 11 | 30 | 80
5 | CCc1c(F)ccc2cc(O)cc(-c3ncc4c(N5CCC(C(=O)n6cc(OC)cn6)CC5)nc(OC[C@@]56CCCN5C[C@H](F)C6)nc4c3F)c12 [Example 294, (1-(7-(8-ethyl-7-fluoro-3-hydroxynaphthalen-1-yl)-8-fluoro-2-(((2R,7aS)-2-fluorotetrahydro-1H-pyrrolizin-7a(5H)-yl)methoxy)pyrido[4,3-d]pyrimidin-4-yl)piperidin-4-yl)(4-methoxy-1H-pyrazol-1-yl)methanone] | 74 | 22 | 61 | 130 | 4490 | 3870
6 | N#Cc1c(N)sc2c(F)ccc(-c3c(C(F)(F)F)cc4c(N5CCC(C(=O)Oc6ccccc6)CC5)nc(OC[C@@]56CCCN5C[C@H](F)C6)nc4c3F)c12 [Example 295, phenyl 1-(7-(2-amino-3-cyano-7-fluorobenzo[b]thiophen-4-yl)-8-fluoro-2-(((2R,7aS)-2-fluorotetrahydro-1H-pyrrolizin-7a(5H)-yl)methoxy)-6-(trifluoromethyl)quinazolin-4-yl)piperidine-4-carboxylate] | 14 | 12 | 11 | 44 | 5 | 56
7 | N#Cc1c(N)sc2c(F)ccc(-c3c(Cl)cc4c(N5CCC(C(=O)Oc6cccnc6)CC5)nc(OC[C@@]56CCCN5C[C@H](F)C6)nc4c3F)c12 [Example 296, pyridin-3-yl 1-(7-(2-amino-3-cyano-7-fluorobenzo[b]thiophen-4-yl)-6-chloro-8-fluoro-2-(((2R,7aS)-2-fluorotetrahydro-1H-pyrrolizin-7a(5H)-yl)methoxy)quinazolin-4-yl)piperidine-4-carboxylate] | 16 | 3 | 3 | 30 | 15 | 318
8 | N#Cc1c(N)sc2c(F)ccc(-c3c(Cl)cc4c(N5CCC(C(=O)Oc6cccc(Cl)c6)CC5)nc(OC[C@@]56CCCN5C[C@H](F)C6)nc4c3F)c12 [Example 297, 3-chlorophenyl 1-(7-(2-amino-3-cyano-7-fluorobenzo[b]thiophen-4-yl)-6-chloro-8-fluoro-2-(((2R,7aS)-2-fluorotetrahydro-1H-pyrrolizin-7a(5H)-yl)methoxy)quinazolin-4-yl)piperidine-4-carboxylate] | 101 | 45 | 23 | 99 | 32 | 299
9 | N#Cc1c(N)sc2c(F)ccc(-c3c(Cl)cc4c(N5CCC(C(=O)Oc6ccccc6Cl)CC5)nc(OC[C@@]56CCCN5C[C@H](F)C6)nc4c3F)c12 [Example 298, 2-chlorophenyl 1-(7-(2-amino-3-cyano-7-fluorobenzo[b]thiophen-4-yl)-6-chloro-8-fluoro-2-(((2R,7aS)-2-fluorotetrahydro-1H-pyrrolizin-7a(5H)-yl)methoxy)quinazolin-4-yl)piperidine-4-carboxylate] | 169 | 80 | 17 | 154 | 16 | 217

Further lines, results first:

Row | IC50 [1] [nM] | IC50 (KRas G12S) [nM] | IC50 (KRas G12C) [nM] | IC50 (KRas WT) [nM] | IC50 [2] [nM] | IC50 [3] [nM] | Compound
10 | 93 | 22 | 9 | 178 | 12 | 323 | N#Cc1c(N)sc2c(F)ccc(-c3c(Cl)cc4c(N5CCC(C(=O)Oc6ccc(F)cc6)CC5)nc(OC[C@@]56CCCN5C[C@H](F)C6)nc4c3F)c12 [Example 299, 4-fluorophenyl 1-(7-(2-amino-3-cyano-7-fluorobenzo[b]thiophen-4-yl)-6-chloro-8-fluoro-2-(((2R,7aS)-2-fluorotetrahydro-1H-pyrrolizin-7a(5H)-yl)methoxy)quinazolin-4-yl)piperidine-4-carboxylate]
11 | 115 | 85 | 9 | 163 | 9 | 408 | COc1ccccc1OC(=O)C1CCN(c2nc(OC[C@@]34CCCN3C[C@H](F)C4)nc3c(F)c(-c4ccc(F)c5sc(N)c(C#N)c45)c(Cl)cc23)CC1 [Example 300, 2-methoxyphenyl 1-(7-(2-amino-3-cyano-7-fluorobenzo[b]thiophen-4-yl)-6-chloro-8-fluoro-2-(((2R,7aS)-2-fluorotetrahydro-1H-pyrrolizin-7a(5H)-yl)methoxy)quinazolin-4-yl)piperidine-4-carboxylate]
12 | 113 | 43 | 16 | 142 | 20 | 264 | N#Cc1c(N)sc2c(F)ccc(-c3c(Cl)cc4c(N5CCC(C(=O)Oc6ccc(Cl)cc6)CC5)nc(OC[C@@]56CCCN5C[C@H](F)C6)nc4c3F)c12 [Example 301, 4-chlorophenyl 1-(7-(2-amino-3-cyano-7-fluorobenzo[b]thiophen-4-yl)-6-chloro-8-fluoro-2-(((2R,7aS)-2-fluorotetrahydro-1H-pyrrolizin-7a(5H)-yl)methoxy)quinazolin-4-yl)piperidine-4-carboxylate]
13 | 79 | 25 | 12 | 164 | 18 | 286 | N#Cc1c(N)sc2c(F)ccc(-c3c(Cl)cc4c(N5CCC(C(=O)Oc6cccc(F)c6)CC5)nc(OC[C@@]56CCCN5C[C@H](F)C6)nc4c3F)c12 [Example 302, 3-fluorophenyl 1-(7-(2-amino-3-cyano-7-fluorobenzo[b]thiophen-4-yl)-6-chloro-8-fluoro-2-(((2R,7aS)-2-fluorotetrahydro-1H-pyrrolizin-7a(5H)-yl)methoxy)quinazolin-4-yl)piperidine-4-carboxylate]
14 | 59 | 3 | 3 | 4 | 14 | 4 | CN1CC2(CCN(c3nc(OC[C@@]45CCCN4C[C@H](F)C5)nc4c(F)c(-c5ccc(F)c6sc(N)c(C#N)c56)c(Cl)cc34)CC2)C1=O [Example 303, 2-amino-4-(6-chloro-8-fluoro-2-(((2R,7aS)-2-fluorotetrahydro-1H-pyrrolizin-7a(5H)-yl)methoxy)-4-(2-methyl-1-oxo-2,7-diazaspiro[3.5]nonan-7-yl)quinazolin-7-yl)-7-fluorobenzo[b]thiophene-3-carbonitrile]
